For the test, the target named is T1, histamine 3 receptor (H3R) (Homo sapiens, UniProt Q9Y5N1).
T1 construct: expressed in transfected cells; host or cells: CHO cells (HR3-CHO cell line), membrane preparation
The test is described as follows: Binding assay with 3H-(R)α-methylhistamine (competition binding, membranes of the human HR3-CHO cell line). As to conditions: membrane of human HR3-CHO cell line; 3H(R)α-Methylhistamine 1 nM; Ki calculated from IC50 by Cheng-Prusoff equation. The protocol: Binding Assay with ^3H—(R)α-methylhistamine
Saturation binding experiments were performed using HR3-CHO membranes prepared as described in Takahashi, K, Tokita, S., Kotani, H. (2003) J. Pharmacol. Exp. Therapeutics 307, 213-218.
An appropriate amount of membrane (60 to 80 μg protein/well) was incubated with increasing concentrations of ^3H(R)α-Methylhistamine di-hydrochloride (0.10 to 10 nM). Non specific binding was determined using a 200 fold excess of cold (R)α-Methylhistamine dihydrobromide (500 nM final concentration). The incubation was carried out at room temperature (in deep-well plates shaking for three hours). The final volume in each well was 250 μl. The incubation was followed by rapid filtration on GF/B filters (pre-soaked with 100 μl of 0.5% PEI in Tris 50 mM shaking at 200 rpm for two hours). […] After harvesting, the plates were dried at 55° C. for 60 min, then we added scintillation fluid (Microscint 40, 40 microl in each well) and the amount of radioactivity on the filter was determined in Packard top-counter after shaking the plates for two hours at 200 rpm at room temperature. […]
All compounds were tested at a single concentration in duplicates. […] Ki's were calculated from IC50 based on Cheng-Prusoff equation (Cheng, Y, Prusoff, W H (1973) Biochem Pharmacol 22, 3099-3108).

SMILES strings stand for the structures.

T1 sequence (Q9Y5N1 whole entry): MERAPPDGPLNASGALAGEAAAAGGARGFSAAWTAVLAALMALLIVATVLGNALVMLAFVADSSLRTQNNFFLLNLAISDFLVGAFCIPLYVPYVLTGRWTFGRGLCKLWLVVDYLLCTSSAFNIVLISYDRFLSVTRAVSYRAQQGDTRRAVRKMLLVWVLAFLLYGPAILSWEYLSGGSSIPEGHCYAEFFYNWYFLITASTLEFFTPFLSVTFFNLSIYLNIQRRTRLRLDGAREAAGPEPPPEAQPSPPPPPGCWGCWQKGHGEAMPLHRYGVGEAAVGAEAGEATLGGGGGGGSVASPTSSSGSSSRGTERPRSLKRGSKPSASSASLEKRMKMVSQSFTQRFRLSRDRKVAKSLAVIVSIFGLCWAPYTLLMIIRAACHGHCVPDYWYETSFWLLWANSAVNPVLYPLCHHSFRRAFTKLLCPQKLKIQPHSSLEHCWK

`CC(C)N1CCC(Oc2ccc3c(c2)cc(C(=O)N2CCS(=O)(=O)CC2)n3CC(F)(F)F)CC1` [Example 1, (1,1-Dioxo-thiomorpholin-4-yl)-[5-(1-isopropyl-piperidin-4-yloxy)-1-(2,2,2-trifluoro-ethyl)-1H-indol-2-yl]-methanone]: the Ki is 0.003 µM. The value for `CC(C)N1CC[C@H](Oc2ccc3[nH]c(C(=O)N4CCS(=O)(=O)CC4)cc3c2)C1` [Example 4, (1,1-Dioxo-thiomorpholin-4-yl)-[5-(1-isopropyl-pyrrolidin-3S-yloxy)-1H-indol-2-yl]-methanone] was 0.049 µM.

The record behind these values is patent US7538101B2, “1,1-dioxo-thiomorpholinyl indolyl methanone derivatives” (Hoffmann-La Roche Inc., priority 2005, dated 2009).
